# Reference: patent publication US20070037831A1, “Methods of using PDE 5 inhibitors for the treatment of congestive heart failure” (priority 2004, published 2007)
# Target: PDE V (Homo sapiens, UniProt O76074)
# Experiment: PDE V inhibition (PDE V IC50)
# Format: biochemical
# Conditions: not given
row,Compound,IC50 [nM]
1,CCn1c(=O)c2c(nc(N[C@@H]3CCC[C@@H]3O)n2Cc2ccccc2)n(CC)c1=O [Compound 14],15 to 100
2,Cc1cccc(Cn2c(NC3CCCCC3)nc3c2c(=O)n(C)c(=O)n3C)c1 [Compound 131],15 to 100
3,CCn1c(=O)c2c(nc(NC3CCCCC3)n2Cc2ccc(S(N)(=O)=O)c(Cl)c2)n(CC)c1=O [Compound 179],≤ 5
4,CCn1c(=O)c2c(nc(NC3CCCCC3)n2Cc2ccccc2)n(CCO)c1=O [Compound 101],15 to 100
5,CCn1c(=O)c2c(nc(NC3CCCC3)n2Cc2ccc(O)cc2)n(CC(C)C)c1=O [Compound 59],5 to 10
6,COc1ccc(Cn2c(NC3CCCCCC3)nc3c2c(=O)n(C)c(=O)n3C)cc1 [Compound 43],15 to 100
7,Cn1c(=O)c2c(nc(NC3CCCCC3)n2Cc2ccccc2)n(C)c1=O [Compound 16],15 to 100
8,CCn1c(=O)c2c(nc(N[C@@H]3CCC[C@H]3O)n2Cc2ccc(OC)c(C)c2)n(CCO)c1=O [Compound 111],10 to 15
9,CCn1c(=O)c2c(nc(NC3(CO)CC=CC3)n2Cc2ccccc2)n(CC(C)C)c1=O [Compound 57],15 to 100
10,CCn1c(=O)c2c(nc(NC3CCCC3)n2Cc2ccc(OC)cc2)n(C)c1=O [Compound 24],10 to 15
11,Cn1c(=O)c2c(nc(NC3CCCCC3)n2Cc2cccc(F)c2)n(C)c1=O [Compound 137],15 to 100
12,CCn1c(=O)c2c(nc(NC3(CO)CC=CC3)n2Cc2ccc(OC)cc2)n(CC)c1=O [Compound 62],≤ 5
13,CCn1c(=O)c2c(nc(NC3CCCCC3)n2Cc2ccc(O)cc2)n(CC)c1=O [Compound 64],≤ 5
14,COc1ccc(Cn2c(NC3CCCCC3)nc3c2c(=O)n(C)c(=O)n3C)cc1Cl [Compound 159],5 to 10
15,COc1ccc(Cn2c(N[C@@H]3CCC[C@@H]3O)nc3c2c(=O)n(C)c(=O)n3CC(C)C)cc1 [Compound 17],15 to 100
16,CCn1c(=O)c2c(nc(NC3CCCCC3)n2Cc2ccc(S(N)(=O)=O)cc2)n(CCO)c1=O [Compound 182],15 to 100
17,CCCn1c(=O)n(CC)c(=O)c2c1nc(NC1CCCCC1)n2Cc1ccc2c(c1)OCO2 [Compound 175],5 to 10
18,CCn1c(=O)c2c(nc(NC3CCCCC3)n2Cc2ccc(OC(C)=O)cc2)n(CC)c1=O [Compound 89],5 to 10
19,CCn1c(=O)[nH]c2nc(NC3CCCCC3)n(Cc3ccc(OC)cc3)c2c1=O [Compound 92],15 to 100

# Target: T1, type V phosphodiesterase (Homo sapiens, UniProt O76074)
# T1 construct: endogenous in cells; host or cells: vasculature of patients with heart failure (in vivo)
# Experiment: not given
# Conditions: patients with heart failure, acute; cited from earlier work
row,Compound,endothelium dependent vasodilation
1,CCCc1nn(C)c2c(=O)[nH]c(-c3cc(S(=O)(=O)N4CCN(C)CC4)ccc3OCC)nc12 [Sildenafil],acutely enhance endothelium dependent vasodilation

# Target: T2, ETA receptor (Homo sapiens, UniProt P25101)
# T2 sequence (P25101 21-427): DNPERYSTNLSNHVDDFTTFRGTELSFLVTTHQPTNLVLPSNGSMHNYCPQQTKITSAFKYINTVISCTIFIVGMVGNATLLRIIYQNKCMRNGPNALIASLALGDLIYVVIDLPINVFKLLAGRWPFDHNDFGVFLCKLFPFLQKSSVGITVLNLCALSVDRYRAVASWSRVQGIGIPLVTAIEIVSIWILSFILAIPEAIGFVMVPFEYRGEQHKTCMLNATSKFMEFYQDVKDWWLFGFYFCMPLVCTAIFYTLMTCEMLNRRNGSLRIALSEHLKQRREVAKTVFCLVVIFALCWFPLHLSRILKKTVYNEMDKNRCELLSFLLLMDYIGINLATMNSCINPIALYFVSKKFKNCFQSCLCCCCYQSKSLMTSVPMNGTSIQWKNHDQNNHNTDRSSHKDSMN
# Experiment: not given
# Conditions: among the ETA receptor antagonists; cited from earlier work
row,Compound,selectivity over ETB
1,Cc1cc2c(cc1CC(=O)c1sccc1S(=O)(=O)Nc1onc(C)c1Cl)OCO2 [sitaxsentan],particularly selective over ETB
